Consider ten compounds from patent US20240368203A1, “DEGRADATION OF (EGFR) BY CONJUGATION OF EGFR INHIBITORS WITH E3 LIGASE LIGAND AND METHODS OF USE” (BeiGene, Ltd., priority 2022, published 2024).

One experiment deals with T1, EGFR-L858R/T790M/C797S (Homo sapiens, UniProt P00533, C797S/L858R/T790M).
T1 construct: expressed in transfected cells; host or cells: H1975-clone #25 (lentiviral over-expression, endogenous EGFR knocked out)
As to the kind of experiment: EGFR degradation HTRF assay in H1975-clone #25 cells. The experiment is classed as cell-based. Conditions: 16 h treatment; for DC50: H1975-clone #25 (L858R/T790M/C797S) cells, IC50 (DC50), read-out: DC50(nM) H1975 # 25-LTC; for Dmax: NCI-H1975, H1975-clone #25 (L858R/T790M/C797S) cells, maximum percentage of inhibition (degradation), read-out: Dmax (%) H1975 # 25-LTC. The procedure: (§1) H1975-clone #28(Del19/T790M/C797S) and H1975-clone #25(L858R/T790M/C797S). EGFR-Del19/T790M/C797S and EGFR-L858R/T790M/C797S were stably expressed in H1975 cell lines by lentivirus-mediated over-expression, respectively. The EGFR over-expressed cells then underwent knockout, in which the EGFR targeting sgRNA was designed to only target the endogenous EGFR copies and preserve the exogenous EGFR copies. Followed by knockout, the edited H1975 cells were seeded in 96 well plates at the concentration of […], cultured for about 2 weeks to allow single clones formation. The formed clones were screened by DNA sequencing and whole exon sequencing analysis for the desired edition.
(§2) H1975-clone #28, and H1975-clone #25 were finally confirmed as homozygous Del19/T790M/C797S EGFR, and L858R/T790M/C797S EGFR clones, respectively.
(§3) H1975-#25 and H1975-#28 cells are treated with compounds diluted in 0.2% DMSO cell culture medium on day 2, incubate for 16 h, 37° C., 5% CO2. the final concentration of compounds in all assay is start with 10 uM, 5-fold dilution, total 8 doses were included.
(§4) After 16 h treatment, add HTRF lysis buffer to each well; seal the plate and incubate 1 hour at room temperature on a plate shaker; Once the cells are lysed, 16 μL of cell lysate are transferred to a PE 384-well HTRF detection plate; 4 μL of pre-mixed HTRF antibodies are added to each well; Cover the plate with a plate sealer, spin 1000 rpm for 1 min, Incubate overnight at room temperature; Read on BMG PheraStar with HTRF protocol (337 nm-665 nm-620 nm).
(§5) The inhibition (degradation) percentage of the compound was calculated by the following equation:
(§6) Inhibition percentage of Compound=100−100×(Signal−low control)/(High control−low control),
(§7) The IC50 (DC50) value of a compound can be obtained by fitting the following equation
(§8) Wherein, X and Y are known values, and IC50, Hillslope, Top and Bottom are the parameters obtained by fitting with software. Y is the inhibition percentage (calculated from the equation), X is the concentration of the compound; IC50 is the concentration of the compound when the 50% inhibition is reached. The smaller the IC50 value is, the stronger the inhibitory ability of the compound is. Vice versa, the higher the IC50 value is, the weaker the ability the inhibitory ability of the compound is; Hillslope represents the slope of the fitted curve, generally around 1 *; Bottom represents the minimum value of the curve obtained by data fitting, which is generally 0%±20%; Top represents the maximum value of the curve obtained by data fitting, which is generally 100%±20%. The experimental data were fitted by calculating and analyzing with Dotmatics data analysis software.
(In TR-FRET formats the signal depends on donor and acceptor labels being close together.)

For another experiment, the system named is EGFR-Del19/T790M/C797S. The experiment is described as follows: EGFR degradation HTRF assay in H1975-clone #28 cells. The settings on record: H1975-clone #28 (Del19/T790M/C797S) cells, 16 h treatment; for DC50: IC50 (DC50), read-out: DC50(nM) H1975 # 28 DTC; for Dmax (%) H1975 # 28 DTC: maximum percentage of inhibition (degradation). The experiment is classed as cell-based. The procedure: as §1, §2, §3, §4, §5, §6, §7, §8

T1 sequence (P00533 25-1210 T790M/C797S/L858R): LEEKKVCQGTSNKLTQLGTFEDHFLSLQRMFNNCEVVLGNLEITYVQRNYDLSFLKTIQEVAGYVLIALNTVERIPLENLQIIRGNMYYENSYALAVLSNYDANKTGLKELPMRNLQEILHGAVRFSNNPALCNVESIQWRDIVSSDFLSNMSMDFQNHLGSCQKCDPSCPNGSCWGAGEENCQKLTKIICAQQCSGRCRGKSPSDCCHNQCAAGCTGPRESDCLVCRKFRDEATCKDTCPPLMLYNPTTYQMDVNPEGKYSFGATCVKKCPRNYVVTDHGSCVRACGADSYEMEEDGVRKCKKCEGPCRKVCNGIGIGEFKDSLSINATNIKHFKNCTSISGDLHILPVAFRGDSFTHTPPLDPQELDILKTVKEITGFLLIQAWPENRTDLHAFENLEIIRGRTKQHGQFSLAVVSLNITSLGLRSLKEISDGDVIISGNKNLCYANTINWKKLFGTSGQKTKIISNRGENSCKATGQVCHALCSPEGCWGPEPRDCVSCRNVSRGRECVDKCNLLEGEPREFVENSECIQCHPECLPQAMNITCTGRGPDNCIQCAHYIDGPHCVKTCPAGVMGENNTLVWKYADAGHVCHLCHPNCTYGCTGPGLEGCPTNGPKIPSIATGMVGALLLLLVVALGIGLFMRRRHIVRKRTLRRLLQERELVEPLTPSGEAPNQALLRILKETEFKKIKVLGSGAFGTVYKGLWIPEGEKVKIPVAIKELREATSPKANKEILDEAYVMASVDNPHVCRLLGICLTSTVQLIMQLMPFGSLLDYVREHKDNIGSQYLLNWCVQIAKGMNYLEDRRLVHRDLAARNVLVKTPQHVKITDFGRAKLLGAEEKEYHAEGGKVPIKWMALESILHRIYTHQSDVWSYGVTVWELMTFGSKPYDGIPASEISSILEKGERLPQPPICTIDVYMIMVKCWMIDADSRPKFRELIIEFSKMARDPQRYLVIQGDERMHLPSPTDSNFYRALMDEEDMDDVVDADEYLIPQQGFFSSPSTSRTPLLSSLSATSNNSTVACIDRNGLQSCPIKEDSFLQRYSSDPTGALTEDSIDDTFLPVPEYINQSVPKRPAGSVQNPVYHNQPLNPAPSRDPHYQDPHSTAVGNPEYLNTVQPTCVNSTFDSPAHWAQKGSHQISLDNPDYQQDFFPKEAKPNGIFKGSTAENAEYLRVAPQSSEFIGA

Broadly, the DC50 is the concentration giving 50% degradation. As a reminder, the Dmax is the largest share of the target that was removed. Regarding `CCc1ncc2c(P(C)(C)=O)c(Nc3nc(Nc4cc(CC)c(N5CCC(N6CCN(C7CN(c8cccc9c8n(C)c(=O)n9C8CCC(=O)NC8=O)C7)CC6)CC5)cc4OC)ncc3Br)ccc2n1` (stereo not shown) [Example 23, 3-(4-(3-(4-(1-(4-((5-bromo-4-((5-(dimethylphosphoryl)-2-ethylquinazolin-6-yl)amino)pyrimidin-2-yl)amino)-2-ethyl-5-methoxyphenyl)piperidin-4-yl)piperazin-1-yl)azetidin-1-yl)-3-methyl-2-oxo-2,3-dihydro-1H-benzo[d]imidazol-1-yl)piperidine-2,6-dione], on EGFR-L858R/T790M/C797S, the DC50 is 0.9 nM and the Dmax came out at 80%. For the same compound, in the experiment with EGFR-Del19/T790M/C797S, the DC50 was 0.6 nM and the “Dmax (%) H1975 # 28 DTC” value came out at 74%.

As for `CCc1cc(Nc2ncc(Br)c(Nc3ccc4nc(C)c(F)cc4c3P(C)(C)=O)n2)c(OC)cc1N1CCC(N2CCN(C(=O)C3CN(c4ccc(F)c5c4n(C)c(=O)n5[C@H]4CCC(=O)NC4=O)C3)CC2)CC1` [Example 24, (S)-3-(4-(3-(4-(1-(4-((5-bromo-4-((5-(dimethylphosphoryl)-3-fluoro-2-methylquinolin-6-yl)amino)pyrimidin-2-yl)amino)-2-ethyl-5-methoxyphenyl)piperidin-4-yl)piperazine-1-carbonyl)azetidin-1-yl)-7-fluoro-3-methyl-2-oxo-2,3-dihydro-1H-benzo[d]imidazol-1-yl)piperidine-2,6-dione], at EGFR-L858R/T790M/C797S, the DC50 was determined as 1.4 nM and the Dmax amounted to 88%. For the same compound, in the experiment with EGFR-Del19/T790M/C797S, the DC50 turned out to be 0.6 nM and the “Dmax (%) H1975 # 28 DTC” value came out at 87%.

In the case of `CCc1ncc2c(P(C)(C)=O)c(Nc3nc(Nc4cc(CC)c(N5CCC(N6CC7(CN(c8cccc9c8n(C)c(=O)n9C8CCC(=O)NC8=O)C7)C6)CC5)cc4OC)ncc3Br)ccc2n1` (stereo not shown) [Example 25, 3-(4-(6-(1-(4-((5-bromo-4-((5-(dimethylphosphoryl)-2-ethylquinazolin-6-yl)amino)pyrimidin-2-yl)amino)-2-ethyl-5-methoxyphenyl)piperidin-4-yl)-2,6-diazaspiro[3.3]heptan-2-yl)-3-methyl-2-oxo-2,3-dihydro-1H-benzo[d]imidazol-1-yl)piperidine-2,6-dione], on EGFR-L858R/T790M/C797S, the DC50 stood at 0.5 nM and the Dmax was 82%. In the experiment on EGFR-Del19/T790M/C797S, the DC50 was determined as 0.8 nM and the “Dmax (%) H1975 # 28 DTC” value turned out to be 74%.

Turning to `CCc1cc(Nc2ncc(Br)c(Nc3ccc4nc(C)c(F)cc4c3P(C)(C)=O)n2)c(OC)cc1N1CCC(N2CC3(CN(c4cccc5c4n(C)c(=O)n5C4CCC(=O)NC4=O)C3)C2)CC1` (stereo not shown) [Example 26, 3-(4-(6-(1-(4-((5-bromo-4-((5-(dimethylphosphoryl)-3-fluoro-2-methylquinolin-6-yl)amino)pyrimidin-2-yl)amino)-2-ethyl-5-methoxyphenyl)piperidin-4-yl)-2,6-diazaspiro[3.3]heptan-2-yl)-3-methyl-2-oxo-2,3-dihydro-1H-benzo[d]imidazol-1-yl)piperidine-2,6-dione], on EGFR-L858R/T790M/C797S, the DC50 worked out at 0.7 nM and the Dmax was found to be 80%. For the same compound, in the experiment with EGFR-Del19/T790M/C797S, the DC50 was 1.4 nM and the “Dmax (%) H1975 # 28 DTC” value turned out to be 75%.

`CCc1cc(Nc2ncc(Br)c(Nc3ccc4nc(C)c(F)cc4c3P(C)(C)=O)n2)c(OC)cc1N1CCC2(CCN(CCCc3cccc4c3n(C)c(=O)n4C3CCC(=O)NC3=O)CC2)CC1` (stereo not shown) [Example 28, 3-(4-(3-(9-(4-((5-bromo-4-((5-(dimethylphosphoryl)-3-fluoro-2-methylquinolin-6-yl)amino)pyrimidin-2-yl)amino)-2-ethyl-5-methoxyphenyl)-3,9-diazaspiro[5.5]undecan-3-yl)propyl)-3-methyl-2-oxo-2,3-dihydro-1H-benzo[d]imidazol-1-yl)piperidine-2,6-dione]: at EGFR-L858R/T790M/C797S, the DC50 was determined as 2.2 nM and the Dmax stood at 87%. For the same compound, in the experiment on EGFR-Del19/T790M/C797S, the DC50 was 1 nM and the “Dmax (%) H1975 # 28 DTC” value is given as 80%.

As for `CCc1ncc2c(P(C)(C)=O)c(Nc3nc(Nc4cc(CC)c(N5CCC(N6CC7(CCN(c8cccc9c8n(C)c(=O)n9C8CCC(=O)NC8=O)CC7)C6)CC5)cc4OC)ncc3Br)ccc2n1` (stereo not shown) [Example 31, 3-(4-(2-(1-(4-((5-bromo-4-((5-(dimethylphosphoryl)-2-ethylquinazolin-6-yl)amino)pyrimidin-2-yl)amino)-2-ethyl-5-methoxyphenyl)piperidin-4-yl)-2,7-diazaspiro[3.5]nonan-7-yl)-3-methyl-2-oxo-2,3-dihydro-1H-benzol[d]imidazol-1-yl)piperidine-2,6-dione], on EGFR-L858R/T790M/C797S, the 50% degradation concentration (DC50) was 0.6 nM and the Dmax was 86%. Besides, in the experiment on EGFR-Del19/T790M/C797S, the DC50 was 0.8 nM and the “Dmax (%) H1975 # 28 DTC” value worked out at 80%.

`CCOc1cc(N2CCC(N3CC4(CCN(c5cccc6c5n(C)c(=O)n6C5CCC(=O)NC5=O)CC4)C3)CC2)c(CC)cc1Nc1ncc(Cl)c(Nc2ccc3nc(C)c(F)cc3c2P(C)(C)=O)n1` (stereo not shown) [Example 32, 3-(4-(2-(1-(4-((5-chloro-4-((5-(dimethylphosphoryl)-3-fluoro-2-methylquinolin-6-yl)amino)pyrimidin-2-yl)amino)-5-ethoxy-2-ethylphenyl)piperidin-4-yl)-2,7-diazaspiro[3.5]nonan-7-yl)-3-methyl-2-oxo-2,3-dihydro-1H-benzol[d]imidazol-1-yl)piperidine-2,6-dione]: on EGFR-L858R/T790M/C797S, the DC50 worked out at 1.3 nM and the Dmax was 81%. Moreover, in the experiment with EGFR-Del19/T790M/C797S, the DC50 came to 1.4 nM and the “Dmax (%) H1975 # 28 DTC” value worked out at 77%.

As to `CCc1cc(Nc2ncc(Br)c(Nc3ccc4nc(C)c(F)cc4c3P(C)(C)=O)n2)c(OC)cc1N1CCC2(CCN(CC3CN(c4cccc5c4CN(C4CCC(=O)NC4=O)C5=O)C3)CC2)CC1` (stereo not shown) [Example 33, 3-(4-(3-((9-(4-((5-bromo-4-((5-(dimethylphosphoryl)-3-fluoro-2-methylquinolin-6-yl)amino)pyrimidin-2-yl)amino)-2-ethyl-5-methoxyphenyl)-3,9-diazaspiro[5.5]undecan-3-yl)methyl)azetidin-1-yl)-1-oxoisoindolin-2-yl)piperidine-2,6-dione], on EGFR-L858R/T790M/C797S, the DC50 amounted to 1.5 nM and the Dmax is 91%. Further, in the experiment with EGFR-Del19/T790M/C797S, the DC50 came out at 2.1 nM and the “Dmax (%) H1975 # 28 DTC” value turned out to be 82%.

As to `CCc1cc(Nc2ncc(Br)c(Nc3ccc4nc(C)c(F)cc4c3P(C)(C)=O)n2)c(OC)cc1N1CCC2(CCN(CCN(C)c3cccc4c3CN(C3CCC(=O)NC3=O)C4=O)CC2)CC1` (stereo not shown) [Example 34, 3-(4-((2-(9-(4-((5-bromo-4-((5-(dimethylphosphoryl)-3-fluoro-2-methylquinolin-6-yl)amino)pyrimidin-2-yl)amino)-2-ethyl-5-methoxyphenyl)-3,9-diazaspiro[5.5]undecan-3-yl)ethyl)(methyl)amino)-1-oxoisoindolin-2-yl)piperidine-2,6-dione], at EGFR-L858R/T790M/C797S, the DC50 worked out at 2.8 nM and the Dmax is 89%. For the same compound, in the experiment on EGFR-Del19/T790M/C797S, the DC50 worked out at 2.5 nM and the “Dmax (%) H1975 # 28 DTC” value turned out to be 80%.

As for `CCc1ncc2c(P(C)(C)=O)c(Nc3nc(Nc4cc(CC)c(N5CCC(N6CCN(CC7CCN(c8ccc9c(c8)CN(C8CCC(=O)NC8=O)C9=O)CC7)CC6)CC5)cc4OC)ncc3Br)ccc2n1` (stereo not shown) [Example 35, 3-(5-(4-((4-(1-(4-((5-bromo-4-((5-(dimethylphosphoryl)-2-ethylquinazolin-6-yl)amino)pyrimidin-2-yl)amino)-2-ethyl-5-methoxyphenyl)piperidin-4-yl)piperazin-1-yl)methyl)piperidin-1-yl)-1-oxoisoindolin-2-yl)piperidine-2,6-dione], on EGFR-L858R/T790M/C797S, the 50% degradation concentration (DC50) was 1.3 nM and the Dmax was determined as 83%. In the experiment with EGFR-Del19/T790M/C797S, the DC50 worked out at 1.2 nM and the “Dmax (%) H1975 # 28 DTC” value is 79%.
